In publication PMC5047629, “Synthesis, Pharmacological Profile and Docking Studies of New Sulfonamides Designed as Phosphodiesterase-4 Inhibitors” (PLoS ONE, 2016):

What was measured:
PDE4D = biological target: T1, PDE4D (Homo sapiens, UniProt Q08499); assay: PDE4D inhibition, IMAP fluorescence polarization protocol; type: biochemical
T1 construct: purchased MDS PHARMA
Method: (§1) The enzymatic reactions were carried at room temperature in a 96-well black plate by co-incubating 25 μL of 200 nM FAM-cAMP (R7513), 5 μL of putative inhibitory compounds and 20 μL of the PDE4 isoform dissolved in assay buffer (R7364) for 1 h. All enzymes were obtained from human recombinant sources (MDS PHARMA), whereas the other reagents were purchased from Molecular Devices. […] PDE4 inhibitors were dissolved in dimethyl sulfoxide (DMSO) at a final concentration of 0.1%.
(§2) The inhibitory activities of the new sulfonamide derivatives were evaluated for their selectivity against the four isoforms of human PDE4, i.e. PDE4A, PDE4B, PDE4C, and PDE4D, using an IMAP-FP protocol.

A/J mice = assay: Short-term murine model of asthma (OVA provocations at days 19 and 20), prophylactic treatment; type: in vivo; conditions: 100 mg/Kg oral, 1 h before each OVA challenge, 24 h after last provocation
Method: Sensitization was performed by means of a subcutaneous injection of 50 μg ovalbumin (OVA) (grade V; Sigma-Aldrich, St. Louis, MO) adsorbed to 5 mg of Al(OH)3 in 0.2 mL of sterile 0.9% NaCl (saline) at days 0 and 14. Intranasal OVA provocations (25 μg /25 μL saline) were performed at 19 and 20 days post-sensitization under isofluorane volatile anaesthesia (Cristalia, São Paulo, Brazil). Alternatively, sensitization as described above were done at days 0 and 7, while the OVA provocations were carried out at days 14, 21, 28 and 35 [39]. Negative control groups were represented by sensitized mice in which allergen was replaced by saline as a challenge. […]
The EPO activity present in lung tissue was determined with a colorimetric assay as described by Strath et al. (1985), with minor modifications. […] The optical density reading was performed on the SpectraMax M5 spectrophotometer (Molecular Devices) at a wavelength of 492 nm.
Twenty-four hours after the last challenge the animals were killed by an over dose of thiopental (200 mg/kg, i.p.) and bronchoalveolar lavage (BAL) was performed three times by intratracheal instillation of 500 μL of PBS and EDTA (10 mM) through a trachea cannula and gently aspirating the fluid. […] Total leukocyte numbers were measured in Neubauer chambers using light microcopy after diluting the samples in Türk solution (2% acetic acid). […]

PDE3 = PDE3 activity inhibition; type: biochemical; conditions: 10 μM
guinea-pig trachea = assay: Tracheal smooth muscle contraction in vitro induced by carbachol; conditions: 100 μM, S1A Fig
Method: Tracheas from guinea pigs were obtained and prepared as described previously. An initial tension of 1 g was applied to the tracheas for 60 min to obtain a constant resting tension. To confirm the viability of the preparation, the response to carbachol (2.5 μM) was recorded. After washout of carbachol and re-establishement of the baseline resting tension, tissues were preincubated with LASSBio-448 (100 μM) or vehicle (DMSO 0.1%) 15 min before re-exposed to cumulative addition of carbachol (10^−8–10^−4 M). The tracheal rings were pretreated 10 min before application of LASSBio-448 with 100 μM SQ22536 (adenylyl cyclase inhibitor). Stimulation-induced isometric contractile responses were measured with a force-displacement transducer (Ugo Basile, Comerio, Italy) and the readout used to assess contractility was obtained by isolated organ data acquisition software (Proto 5; Letica Scientific Instruments, Barcelona, Spain). Contractile responses were expressed as a percentage of the maximal contraction induced by 2.5 μM carbachol.

PDE4A = biological target: T2, PDE4A (Homo sapiens, UniProt P27815); assay: PDE4A inhibition, IMAP fluorescence polarization protocol; type: biochemical
T2 construct: purchased MDS PHARMA
Method: as §1, §2

[1] = recombinant enzyme, mean ± SEM of three measurements

T1 sequence (Q08499 1-673 isoform Q08499-2): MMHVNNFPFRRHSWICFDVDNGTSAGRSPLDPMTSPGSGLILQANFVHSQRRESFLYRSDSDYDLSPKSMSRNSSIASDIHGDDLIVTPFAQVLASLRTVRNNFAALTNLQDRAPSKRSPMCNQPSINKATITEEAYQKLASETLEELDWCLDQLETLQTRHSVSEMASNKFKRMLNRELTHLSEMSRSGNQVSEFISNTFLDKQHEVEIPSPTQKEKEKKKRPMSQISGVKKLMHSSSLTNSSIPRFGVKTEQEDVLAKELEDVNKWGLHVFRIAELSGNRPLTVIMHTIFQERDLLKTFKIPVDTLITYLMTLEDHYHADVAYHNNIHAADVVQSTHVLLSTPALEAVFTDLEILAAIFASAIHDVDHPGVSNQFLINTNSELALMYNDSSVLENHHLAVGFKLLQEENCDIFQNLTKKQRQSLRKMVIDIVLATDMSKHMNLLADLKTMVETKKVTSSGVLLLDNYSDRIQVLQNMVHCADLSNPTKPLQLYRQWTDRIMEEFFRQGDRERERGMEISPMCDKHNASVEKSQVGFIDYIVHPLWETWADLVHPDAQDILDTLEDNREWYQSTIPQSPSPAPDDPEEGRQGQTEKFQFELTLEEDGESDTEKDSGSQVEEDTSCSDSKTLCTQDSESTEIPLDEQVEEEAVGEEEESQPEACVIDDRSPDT
T2 sequence (P27815 1-647 isoform P27815-4): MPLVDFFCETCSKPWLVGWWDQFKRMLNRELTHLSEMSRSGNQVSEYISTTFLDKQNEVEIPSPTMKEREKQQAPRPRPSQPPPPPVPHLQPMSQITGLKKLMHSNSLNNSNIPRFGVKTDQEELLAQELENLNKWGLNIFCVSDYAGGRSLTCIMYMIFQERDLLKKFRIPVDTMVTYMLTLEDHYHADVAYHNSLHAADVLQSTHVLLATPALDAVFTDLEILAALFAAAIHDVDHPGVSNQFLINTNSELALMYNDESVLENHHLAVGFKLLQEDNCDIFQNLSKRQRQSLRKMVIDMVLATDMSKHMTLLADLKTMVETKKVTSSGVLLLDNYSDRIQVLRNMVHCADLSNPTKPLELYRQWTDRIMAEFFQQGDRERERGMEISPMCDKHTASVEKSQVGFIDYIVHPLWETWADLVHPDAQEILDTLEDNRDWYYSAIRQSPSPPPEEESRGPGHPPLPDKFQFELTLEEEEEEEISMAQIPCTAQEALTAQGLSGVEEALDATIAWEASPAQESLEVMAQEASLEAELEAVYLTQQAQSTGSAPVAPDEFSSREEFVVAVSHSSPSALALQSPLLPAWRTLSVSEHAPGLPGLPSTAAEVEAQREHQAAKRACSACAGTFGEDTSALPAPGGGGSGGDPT

SMILES: COc1ccc(CCNS(=O)(=O)c2cc3c(cc2C)OCO3)cc1OC [6a (LASSBio-448), N-(3,4-dimethoxyphenethyl)-6-methylbenzo[d][1, 3]dioxole-5-sulfonamide]
- inhibition at 1 µM (PDE4D; 1 μM, mean ± SEM, 3 experiments, read-out: PDE4D3 inhibition): 26.5 ± 0.7%
- selective inhibitory index (SI) PDE4D/PDE4A (PDE4D; ratio of IC50 values): 6.7
- selective inhibitory index (SI) PDE4D/PDE4B (PDE4D; ratio of IC50 values): 3.3
- IC50 (PDE4D; [1]): 4.7 ± 0.09 µM
- eosinophil levels in bronchoalveolar lavage fluid (A/J mice; Fig 4A): clearly prevented the up-regulation
- eosinophil levels in lung tissue homogenates (EPO colorimetric assay) (A/J mice; Fig 4B): clearly prevented the up-regulation
- inhibition of PDE3 activity (PDE3): failed to inhibit
- tracheal contraction induced by cumulative carbachol (guinea-pig trachea): inhibited
- relaxant effect after pre-treatment with SQ22,536 (guinea-pig trachea; pre-treatment with 100 μM SQ22,536 (adenylyl cyclase inhibitor)): clearly abrogated
- PDE4A1A inhibition (PDE4A; 1 μM, mean ± SEM, 3 experiments): able to inhibit
- inhibition at 1 µM (PDE4A; 1 μM, mean ± SEM, 3 experiments, read-out: PDE4A1A inhibition): 36.5 ± 0.7%
- IC50 (PDE4A; [1]): 700 ± 70 nM
